Laboratory results published in patent US11000516B2 (priority 2015, dated 2021).

Tested on: S221 (mouse-adapted DENV2 strain)
Test: Antiviral effect in BHK-21 cells, plaque assay of supernatant 48 h pi
Assay type: cell-based
Details: Dengue virus, DENV2, BHK-21
Experimental: Cells were infected with DENV strains for 1 hour at 37° C. and washed once with culture media. […] The supernatants were subjected to standard plaque assay and the EC50 values were determined using the GraphPad Prism software.
NITD008, an adenosine analog inhibitor of DENV polymerase (Yin et al., 2009) was used as a positive control.

CCCC(=O)O[C@H]1CN2CC[C@H](O)[C@@H]2[C@@H](O)[C@@H]1O [celgosivir]
EC50: 119 nM
